In PubChem BioAssay AID228 (DTP/NCI, 2004):
Where “and” joins values, the source holds several entries; their conditions need not be identical. Equal entries are not always repeated. Records with an inconclusive call do not appear.

Tested on: BDF1 mice, Friend leukemia sc, tumor weight T/C
Experiment: NCI In Vivo Anticancer Drug Screen. Data for tumor model Friend Virus Leukemia (Solid) (subcutaneous) in B6D2F1 (BDF1) mice
Conditions: endpoint: mean tumor weight, higher = larger tumour
Method: The antitumor activity of compounds was measured in mice bearing transplantable tumors. Survival or tumor size were measured and the results are expressed as the measurement made in the treated group (T) divided by the measurement made in the vehicle treated control group (C). The tumor model used in this assay is Friend Virus Leukemia (Solid) (subcutaneous) in B6D2F1 (BDF1) mice

[1] = dose: 25.0 mg/kg/injection, schedule: Q01DX011 (sc), vehicle: steriod suspending solution
[2] = dose: 1.0 mg/kg/injection, schedule: Q01DX011 (ip), vehicle: carboxymethylcellulose (CMC)
[3] = dose: 2.0 mg/kg/injection, schedule: Q01DX011 (ip), vehicle: carboxymethylcellulose (CMC)
[4] = dose: 4.0 mg/kg/injection, schedule: Q01DX011 (ip), vehicle: carboxymethylcellulose (CMC)
[5] = dose: 125.0 mg/kg/injection, schedule: Q01DX011 (ip), vehicle: carboxymethylcellulose (CMC)
[6] = dose: 125.0 mg/kg/injection, schedule: Q01DX011 (ip), vehicle: saline
[7] = dose: 250.0 mg/kg/injection, schedule: Q01DX011 (ip), vehicle: saline
[8] = dose: 45.0 mg/kg/injection, schedule: Q01DX011 (ip), vehicle: carboxymethylcellulose (CMC)
[9] = dose: 90.0 mg/kg/injection, schedule: Q01DX011 (ip), vehicle: carboxymethylcellulose (CMC)
[10] = dose: 62.0 mg/kg/injection, schedule: Q01DX011 (ip), vehicle: carboxymethylcellulose (CMC)
[11] = dose: 12.0 mg/kg/injection, schedule: Q01DX011 (ip), vehicle: carboxymethylcellulose (CMC)
[12] = dose: 25.0 mg/kg/injection, schedule: Q01DX011 (ip), vehicle: carboxymethylcellulose (CMC)
[13] = dose: 50.0 mg/kg/injection, schedule: Q01DX011 (ip), vehicle: carboxymethylcellulose (CMC)
[14] = dose: 100.0 mg/kg/injection, schedule: Q01DX011 (ip), vehicle: carboxymethylcellulose (CMC)
[15] = dose: 200.0 mg/kg/injection, schedule: Q01DX011 (ip), vehicle: carboxymethylcellulose (CMC)
[16] = dose: 31.0 mg/kg/injection, schedule: Q01DX011 (ip), vehicle: saline

## CC(=O)O[C@]1(C(C)=O)CC[C@H]2[C@@H]3C[C@H](C)C4=CC(=O)C=C[C@]4(C)[C@@]3(F)[C@@H](O)C[C@@]21C
[1]
  T/C: 35 % of control
dose: 37.5 mg/kg/injection, schedule: Q01DX011 (sc), vehicle: steriod suspending solution
  T/C: 34 % of control
dose: 300.0 mg/kg/injection, schedule: Q01DX011 (sc), vehicle: steriod suspending solution
  T/C: 11 % of control

## CS(=O)(=O)OCCCl
dose: 14.0 mg/kg/injection, schedule: Q01DX011 (ip), vehicle: carboxymethylcellulose (CMC)
  T/C: 67 % of control
dose: 28.0 mg/kg/injection, schedule: Q01DX011 (ip), vehicle: carboxymethylcellulose (CMC)
  T/C: 70 % of control
dose: 57.0 mg/kg/injection, schedule: Q01DX011 (ip), vehicle: carboxymethylcellulose (CMC)
  T/C: 69 % of control
dose: 115.0 mg/kg/injection, schedule: Q01DX011 (ip), vehicle: carboxymethylcellulose (CMC)
  T/C: 60 % of control

## CCCCCCCCCCCCn1c(C)nc2ccccc21
[2]
  T/C: 114 % of control
[3]
  T/C: 75 % of control
[4]
  T/C: 97 % of control
dose: 8.0 mg/kg/injection, schedule: Q01DX011 (ip), vehicle: carboxymethylcellulose (CMC)
  T/C: 76 % of control

## CC(Cl)CN(Cc1cc(O)c(CN(CC(C)Cl)CC(C)Cl)cc1O)CC(C)Cl (stereo not drawn)
dose: 62.5 mg/kg/injection, schedule: Q01DX011 (ip), vehicle: carboxymethylcellulose (CMC)
  T/C: 66 % of control
[5]
  T/C: 44 % of control

## COC(=S)SCN(CSC(=S)OC)c1ccccc1Cl
[6]
  T/C: 95 % of control
[7]
  T/C: 107 % of control

## O=C1N(Cl)C(=O)C(c2ccc(Cl)cc2)(c2ccc(Cl)cc2)N1Cl
dose: 15.0 mg/kg/injection, schedule: Q01DX011 (ip), vehicle: carboxymethylcellulose (CMC)
  T/C: 56 % of control
dose: 30.0 mg/kg/injection, schedule: Q01DX011 (ip), vehicle: carboxymethylcellulose (CMC)
  T/C: 42 % of control
dose: 60.0 mg/kg/injection, schedule: Q01DX011 (ip), vehicle: carboxymethylcellulose (CMC)
  T/C: 33 % of control
dose: 120.0 mg/kg/injection, schedule: Q01DX011 (ip), vehicle: carboxymethylcellulose (CMC)
  T/C: 47 % of control

## O=c1c[n+](-c2ccccc2)[nH]o1
dose: 22.5 mg/kg/injection, schedule: Q01DX011 (ip), vehicle: carboxymethylcellulose (CMC)
  T/C: 89 % of control
[8]
  T/C: 76 % of control
[9]
  T/C: 74 % of control
dose: 180.0 mg/kg/injection, schedule: Q01DX011 (ip), vehicle: carboxymethylcellulose (CMC)
  T/C: 78 % of control

## Nc1ccc(OC(=O)Oc2ccc(N)cc2)cc1
dose: 31.0 mg/kg/injection, schedule: Q01DX011 (ip), vehicle: carboxymethylcellulose (CMC)
  T/C: 105 % of control
[10]
  T/C: 68 % of control
[5]
  T/C: 28 % of control

## C[C@]12C=CC(=O)C=C1CC[C@@H]1[C@@H]2[C@@H](O)C[C@@]2(C)[C@H]1CC[C@]2(O)C(=O)COC(=O)C1CCCC1
dose: 0.12 mg/kg/injection, schedule: Q01DX011 (sc), vehicle: steriod suspending solution
  T/C: 103 % of control
dose: 0.25 mg/kg/injection, schedule: Q01DX011 (sc), vehicle: steriod suspending solution
  T/C: 102 % of control
dose: 0.5 mg/kg/injection, schedule: Q01DX011 (sc), vehicle: steriod suspending solution
  T/C: 95 % of control
dose: 3.0 mg/kg/injection, schedule: Q01DX011 (sc), vehicle: steriod suspending solution
  T/C: 46 % of control
dose: 6.0 mg/kg/injection, schedule: Q01DX011 (sc), vehicle: steriod suspending solution
  T/C: 47 % of control
dose: 6.3 mg/kg/injection, schedule: Q01DX011 (sc), vehicle: steriod suspending solution
  T/C: 38 % of control
dose: 12.0 mg/kg/injection, schedule: Q01DX011 (sc), vehicle: steriod suspending solution
  T/C: 33 % of control
dose: 12.5 mg/kg/injection, schedule: Q01DX011 (sc), vehicle: steriod suspending solution
  T/C: 25 % of control
[1]
  T/C: 10 % of control and 24 % of control
dose: 50.0 mg/kg/injection, schedule: Q01DX011 (sc), vehicle: steriod suspending solution
  T/C: 8 % of control and 14 % of control
dose: 100.0 mg/kg/injection, schedule: Q01DX011 (sc), vehicle: steriod suspending solution
  T/C: 7 % of control

## O=C(O)C(=O)c1ccc(-c2ccccc2)cc1
[10]
  T/C: 67 % of control
[5]
  T/C: 45 % of control

## CCCCCCCCCC(C)(O)C#CC(C)(O)CCCCCCCCC (stereo not drawn)
[11]
  T/C: 81 % of control
[12]
  T/C: 82 % of control
[13]
  T/C: 58 % of control and 59 % of control
[14]
  T/C: 55 % of control
[15]
  T/C: 34 % of control

## CN=C(N)c1ccc(N=C(N)c2ccc(C(N)=Nc3ccc(C(N)=NC)cc3)cc2)cc1
dose: 7.5 mg/kg/injection, schedule: Q01DX011 (ip), vehicle: saline
  T/C: 182 % of control
dose: 10.0 mg/kg/injection, schedule: Q01DX011 (ip), vehicle: saline
  T/C: 183 % of control
dose: 15.0 mg/kg/injection, schedule: Q01DX011 (ip), vehicle: saline
  T/C: 165 % of control

## C=CCNc1ccc(C)cc1
dose: 22.0 mg/kg/injection, schedule: Q01DX011 (ip), vehicle: carboxymethylcellulose (CMC)
  T/C: 60 % of control
[8]
  T/C: 58 % of control
[9]
  T/C: 35 % of control

## CC(C)NCC(=O)c1ccc(O)c(O)c1
dose: 50.0 mg/kg/injection, schedule: Q01DX011 (ip), vehicle: saline
  T/C: 95 % of control
dose: 100.0 mg/kg/injection, schedule: Q01DX011 (ip), vehicle: saline
  T/C: 110 % of control
dose: 200.0 mg/kg/injection, schedule: Q01DX011 (ip), vehicle: saline
  T/C: 102 % of control

## NC(=O)N(CCCl)N=O
[2]
  T/C: 104 % of control
[3]
  T/C: 101 % of control
[4]
  T/C: 78 % of control

## NC(=O)/C=C/C(=O)O (tested in a mixture with another compound)
dose: 7.5 mg/kg/injection, schedule: Q#A X022 (ip), vehicle: carboxymethylcellulose (CMC)
  T/C: 78 % of control
dose: 15.5 mg/kg/injection, schedule: Q#A X022 (ip), vehicle: carboxymethylcellulose (CMC)
  T/C: 66 % of control

## CS(=O)(=O)OCC(=O)NCCNC(=O)COS(C)(=O)=O
dose: 20.0 mg/kg/injection, schedule: Q01DX011 (ip), vehicle: carboxymethylcellulose (CMC)
  T/C: 93 % of control
[16]
  T/C: 110 % of control
dose: 40.0 mg/kg/injection, schedule: Q01DX011 (ip), vehicle: carboxymethylcellulose (CMC)
  T/C: 101 % of control
dose: 62.0 mg/kg/injection, schedule: Q01DX011 (ip), vehicle: saline
  T/C: 108 % of control
dose: 80.0 mg/kg/injection, schedule: Q01DX011 (ip), vehicle: carboxymethylcellulose (CMC)
  T/C: 52 % of control
[6]
  T/C: 89 % of control
[7]
  T/C: 60 % of control

## CCCCNc1ncnc2c1cnn2C
dose: 4.0 mg/kg/injection, schedule: Q01DX011 (ip), vehicle: saline
  T/C: 150 % of control
dose: 16.0 mg/kg/injection, schedule: Q01DX011 (ip), vehicle: saline
  T/C: 117 % of control
[16]
  T/C: 84 % of control

## NCC(O)c1ccc(O)c(O)c1 (stereo not drawn)
dose: 9.37 mg/kg/injection, schedule: Q01DX011 (ip), vehicle: saline
  T/C: 84 % of control
dose: 18.75 mg/kg/injection, schedule: Q01DX011 (ip), vehicle: saline
  T/C: 69 % of control
dose: 37.5 mg/kg/injection, schedule: Q01DX011 (ip), vehicle: saline
  T/C: 30 % of control

## Oc1ccc2ccccc2c1N=Nc1ccccc1
[12]
  T/C: 90 % of control
[13]
  T/C: 56 % of control
[14]
  T/C: 41 % of control and 47 % of control
[15]
  T/C: 65 % of control and 47 % of control

## O=C(O)c1ccc(-c2ccccc2)cc1
[13]
  T/C: 103 % of control

## ClCCn1cnc2c(SCc3ccccc3Cl)ncnc21
dose: 3.0 mg/kg/injection, schedule: Q01DX011 (ip), vehicle: carboxymethylcellulose (CMC)
  T/C: 72 % of control
dose: 6.0 mg/kg/injection, schedule: Q01DX011 (ip), vehicle: carboxymethylcellulose (CMC)
  T/C: 81 % of control
[11]
  T/C: 77 % of control
[12]
  T/C: 36 % of control
[13]
  T/C: 43 % of control
[14]
  T/C: 43 % of control
[15]
  T/C: 10 % of control and 25 % of control
dose: 400.0 mg/kg/injection, schedule: Q01DX011 (ip), vehicle: carboxymethylcellulose (CMC)
  T/C: 16 % of control

## O=[As]O
dose: 1.6 mg/kg/injection, schedule: Q01DX011 (ip), vehicle: carboxymethylcellulose (CMC)
  T/C: 78 % of control
dose: 3.25 mg/kg/injection, schedule: Q01DX011 (ip), vehicle: carboxymethylcellulose (CMC)
  T/C: 77 % of control
dose: 6.5 mg/kg/injection, schedule: Q01DX011 (ip), vehicle: carboxymethylcellulose (CMC)
  T/C: 98 % of control
dose: 13.0 mg/kg/injection, schedule: Q01DX011 (ip), vehicle: carboxymethylcellulose (CMC)
  T/C: 46 % of control
